This note sets out measurements from US10472599B2, “Microfluidic cell culture of patient-derived tumor cell spheroids” (Dana-Farber Cancer Institute, Inc., priority 2015, dated 2019).

What all share (format): cell-based, human
Experiment [1] concerns spheroids derived from multiple different melanoma resection specimens. The experiment can be described thus: Light microscopy of immune response in patient-derived melanoma spheroids in 3D microfluidic culture. The following applies: pembrolizumab 250 μg/mL. The procedure: On Day 1, tumor was collected in an operating room and placed in a sterile 15 mL conical tube bathed with culture media (10% FBS with DMEM or RPMI) and stored on ice. The media was aspirated in a sterile hood and the tumor specimen gently placed in a normal 10 cm culture dish on ice. Using a scalpel, the tumor was minced into smaller pieces. A sample can optionally be exposed to strong collagenase treatment to generate single cells that can be submitted directly for flow cytometry. To the 10 cm dish containing the minced tumor was added 10 mL of collagenase solution (10 mL media, 150 μL HEPES (15 mM final concentration), 100 μL collagenase (100 U/μL stock, 1 unit/μL final concentration)). The minced tumor and collagenase mixture was subsequently transferred to a 50 mL conical tube, and then transferred to a fresh low-attachment 10 cm dish. The low-attachment dish comprising the sample was incubated at 37° C. for 30-60 minutes while checking every 15-30 minutes, as the duration of time required varies from specimen to specimen. The intended outcome of this step is to generate multicellular spheroids via a limited collagenase digestion, so the sample should not be comprised entirely of single cells. After the […] incubation period, 10 mL of fresh media was added to the dish containing the tumor sample and the contents (˜20 mL) transferred to a 50 mL conical tube. […]

For the next experiment, the system named is melanoma tumor spheroids. As to the kind of experiment: Flow cytometry immune profiling of cells extracted from the device post-treatment. The procedure:
For flow cytometry, RNA sequencing analysis, or T-cell receptor (TCR) sequencing the cells were removed using collagenase (150 μL per device) after media had been removed. […] The cells in collagenase were aspirated into a 15 mL conical tube containing 4.0 mL of sterile 1× PBS and spun down for 5 minutes at 1100 rpm. The PBS wash was gently aspirated and the pellet resuspended in 1.5 mL 10% FBS-DMEM for flow cytometry. In some instances, genomic DNA is prepared from flow-sorted T lymphocytes for TCR sequencing using the ImmunoSeq platform from Adaptive Biotechnologies to evaluate T-cell receptor clonality. Clonality can be assessed in spheroids relative to bulk tumor, and in response to immune checkpoint blockade to evaluate for increased TCR clonality (indicating expansion of tumor-reactive T cell clones). For RNA sequencing, the resuspension can be performed using 1.5 mL 10% FBS-DMEM, PBS, or a compatible lysis buffer.
Additionally, although it was demonstrable by flow cytometry of melanoma tumor spheroids at baseline that they consisted of up to 20% immune cells, including T cells, dendritic cells, monocytes (not shown), the value of extracting cells from the device and repeating flow cytometry post-treatment was realized. By repeating collagenase digestion within the device and washing cells in PBS, conditions have been developed that enable repeat immune profiling. […]
In general terms: Flow cytometry measures light scatter and fluorescence of single cells or particles in a stream.

The subject of experiment [2] is spheroids derived from multiple different melanoma resection specimens. As to the kind of experiment: Luminex cytokine profiling of conditioned media from melanoma spheroid culture. On the procedure: On Day 3, media was aspirated from the device and ˜200 μL media (1:1 mixture of 10% FBS-DMEM and EGM2 supplemented with growth factors per protocol) with or without treatment (e.g., anti-PD-1 monoclonal Ab) were added to each device. The devices were subsequently placed in humidified, sterile containers, and returned to 37° C. incubation.
On Day 6 (or 48-72 hours post-treatment), conditioned media was collected for cytokine analysis. Light microscopy was performed and images obtained to characterize and document spheroid dispersal and/or putative immune response, which is commonly characterized by non-pigmented cells surrounding the brown-pigmented melanoma spheroids. Media was collected from each device by aspiration using a 200 μL pipet, transferred to sterile 1.5 mL Eppendorf tubes, and frozen at −80° C. prior to submission to CMOP for multiplex cytokine/chemokine analysis. Also on Day 6, the cells present in the 3D culture device following treatment were characterized by multiple methods.
As the spheroids and co-cultured endothelial cells are bathed in media, the conditioned media was extracted from the device and luminex cytokine profiling was performed.

On to pembrolizumab, for which the immune response result in experiment [1] (absence of anti-CD28 co-stimulation (FIG. 4A)) and in experiment [1] (presence of anti-CD28 co-stimulation (FIG. 4B)) was “observed immune response” in each case. The “markers of early CD8 T cell activation such as CD69” value in the experiment with melanoma tumor spheroids (post-treatment flow cytometry (FIG. 6A)) is recorded as “observed increase”. Further, in the experiment on melanoma tumor spheroids (post-treatment flow cytometry (FIG. 6B)), the “specific immune checkpoint receptors such as TIM3” value is “increase”. The “certain cytokines (e.g., IP10) in conditioned media” value in experiment [2] (combination with anti-CD28 (FIG. 5)) is “induced”. Moreover, the “cytokines in conditioned media” value in experiment [2] (following αPD1 exposure (FIG. 5)) is reported as “pronounced up-regulation of multiple cytokines”.
